According to the supplement of paper PMC8671470:

Legend:
Details in all cases: 72 h
[1] = tested on: HL-60
Method in brief: (§1)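 The IC50 was derived from log-logistic dose–response fitting. Each of fifteen myeloid leukaemia cell lines, seeded in RPMI 1640 within its linear growth range, was exposed in 384-well plates to five tenfold doses (1 to 10,000 nM) in duplicate for 72 h at 37 °C and 5% CO2. Luminescent ATP viability readings were normalised to vehicle and to a positive control at 10 µM before four-parameter curve fitting.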

[2] = tested on: MV4-11
Method in brief: as §1

[3] = tested on: KCL-22
Method in brief: as §1

[4] = tested on: K-562
Method in brief: as §1

[5] = tested on: ML-2
Method in brief: as §1

[6] = tested on: KG-1
Method in brief: as §1

[7] = tested on: LAMA-84
Method in brief: as §1

[8] = tested on: THP-1
Method in brief: as §1

[9] = tested on: NOMO-1
Method in brief: as §1

[10] = tested on: SHI-1
Method in brief: as §1

[11] = tested on: MOLM-13
Method in brief: as §1

[12] = tested on: HEL
Method in brief: as §1

[13] = tested on: Mono-Mac-6
Method in brief: as §1

[14] = tested on: KU-812
Method in brief: as §1

[15] = tested on: BV-173
Method in brief: as §1

[16] = tested on: HL-60; assay: cell viability (% survival relative to DMSO control, bortezomib = 0%); higher = less cytotoxic
Method in brief: (§2)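 Seeding density for each of the 10 AML and 5 CML cell lines was titrated to the linear growth range. Cells went into 384-well plates pre-printed in duplicate with compounds at 1, 10, 100, 1000 or 10000 nM and were held for 72 h at 37 °C with 5% CO2. CellTiter-Glo luminescence then provided the readout. Percent survival is expressed relative to vehicle at 100% and a 10 µM positive control at 0%, averaged over duplicates.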

[17] = tested on: MV4-11; assay: as above
Method in brief: as §2

[18] = tested on: KCL-22; assay: as above
Method in brief: as §2

[19] = tested on: K-562; assay: as above
Method in brief: as §2

[20] = tested on: ML-2; assay: as above
Method in brief: as §2

[21] = tested on: KG-1; assay: as above
Method in brief: as §2

[22] = tested on: LAMA-84; assay: as above
Method in brief: as §2

[23] = tested on: THP-1; assay: as above
Method in brief: as §2

[24] = tested on: NOMO-1; assay: as above
Method in brief: as §2

[25] = tested on: SHI-1; assay: as above
Method in brief: as §2

[26] = tested on: MOLM-13; assay: as above
Method in brief: as §2

[27] = tested on: HEL; assay: as above
Method in brief: as §2

[28] = tested on: Mono-Mac-6; assay: as above
Method in brief: as §2

[29] = tested on: KU-812; assay: as above
Method in brief: as §2

[30] = tested on: BV-173; assay: as above
Method in brief: as §2

CN(C)C(=O)n1nnnc1Cc1ccc(-c2ccccc2)cc1
Details | IC50 (cell viability)
[1] | 3.63 µM
[2] | 1770 nM
[3] | 2920 nM
[4] | 1880 nM
[5] | 1500 nM
[6] | 1170 nM
[7] | 2450 nM
[8] | 1740 nM
[9] | 4.43 µM
[10] | 3.74 µM
[11] | 3.38 µM
[12] | 2410 nM
[13] | 2480 nM
[14] | 1890 nM
[15] | 422 nM

cell viability [%]
Details | 1 nM | 10 nM | 100 nM | 1000 nM | 10000 nM
[16] | 114 | 136 | 106 | 108 | 2.17
[17] | 98.3 | 114 | 89.2 | 76.4 | 0.0147
[18] | 94.6 | 109 | 101 | 95 | 0.732
[19] | 100 | 111 | 112 | 78.1 | 4.59
[20] | 101 | 112 | 114 | 69.2 | 3.07
[21] | 93.7 | 108 | 104 | 60.6 | 8.52
[22] | 83 | 109 | 103 | 85.5 | 3.4
[23] | 103 | 112 | 102 | 67.6 | 35
[24] | 105 | 99.4 | 96.7 | 86.9 | 26.5
[25] | 97.5 | 116 | 125 | 112 | 1.4
[26] | 99 | 122 | 115 | 104 | 0.746
[27] | 101 | 112 | 102 | 87.1 | 1.09
[28] | 95.9 | 102 | 102 | 88.6 | 0.0787
[29] | 101 | 101 | 96.5 | 77.9 | 3.07
[30] | 96.6 | 110 | 98.1 | 13.7 | 0.269
